experiment: in vitro; settings: human, hek293t cells
Experimental: Mammalian cytotoxicity measurement was performed using Cell Titer-Glo 2.0 Cell Viability Assay (Promega, G9243) according to the manufacturer protocol. In brief, mammalian cells were seeded into 384-well white plates (Greiner, 781080) and incubated at 37°C for one day. Compounds from the Cys-Library were dispensed into the assay plate using epMotion 96. The plates were then incubated at 37°C for two days. An equal volume of Cell Titer-Glo 2.0 reagent was added into each well of the assay plate using epMotion 96 and incubated at 22°C for 10 min, followed by luminescence measurement using a Cytation 5 plate reader (BioTek).

Row | SMILES | viability at 48 h, 25 µM
1 | Cc1c(Cl)cccc1NC(=O)CNC(=O)CCl [5-N20, 2-chloro-N-{[(3-chloro-2-methylphenyl)carbamoyl]methyl}acetamide] | 1.4%
2 | CCc1nc(C2CCCN2C(=O)CCl)no1 (stereo not shown) [5-C08, 2-chloro-1-[2-(5-ethyl-1,2,4-oxadiazol-3-yl)pyrrolidin-1-yl]ethan-1-one] | 1.18%
3 | O=C(CCl)N(CC1=CCCOC1)Cc1ccccc1 [7-J20, N-benzyl-2-chloro-N-[(5,6-dihydro-2H-pyran-3-yl)methyl]acetamide] | 0.586%
4 | C=CC(=O)N(C)Cc1nc2c(cnn2C)c(=O)[nH]1 [3-L08, N-methyl-N-({1-methyl-4-oxo-1H,4H,5H-pyrazolo[3,4-d]pyrimidin-6-yl}methyl)prop-2-enamide] | 70.4%
5 | Cc1cc(C(C)(C)C)cc(C)c1NC(=O)CCl [4-L19, N-(4-tert-butyl-2,6-dimethylphenyl)-2-chloroacetamide] | 1.04%
6 | COc1cc(CN(C(=O)CCl)C2CC2)ccc1O [7-H18, 2-chloro-N-cyclopropyl-N-[(4-hydroxy-3-methoxyphenyl)methyl]acetamide] | 0.647%
7 | CC(NC(=O)CCl)C(c1ccccc1Cl)n1cccn1 (stereo not shown) [7-D20, 2-chloro-N-[1-(2-chlorophenyl)-1-(1H-pyrazol-1-yl)propan-2-yl]acetamide] | 1.01%
8 | Cc1noc(C23CC(CN2C(=O)C(C)Cl)C3)n1 (stereo not shown) [7-E10, 2-chloro-1-[1-(3-methyl-1,2,4-oxadiazol-5-yl)-2-azabicyclo[2.1.1]hexan-2-yl]propan-1-one] | 93.2%
9 | O=C(CCl)Nc1nnc(SCc2ccccc2)s1 [4-F15, N-[5-(benzylsulfanyl)-1,3,4-thiadiazol-2-yl]-2-chloroacetamide] | 0.76%
10 | O=C(CCl)NC1CCN(C(=O)c2ccccc2)C1 (stereo not shown) [7-P06, N-(1-benzoylpyrrolidin-3-yl)-2-chloroacetamide] | 0.866%
11 | CC(Cl)C(=O)N1CCCC(c2cnn(C)c2)C1 (stereo not shown) [7-M16, 2-chloro-1-[3-(1-methyl-1H-pyrazol-4-yl)piperidin-1-yl]propan-1-one] | 82%
12 | C=CC(=O)N1CCC(C(=O)N2CCCCC(SCC)C2)CC1 (stereo not shown) [2-P10, 1-{4-[3-(ethylsulfanyl)azepane-1-carbonyl]piperidin-1-yl}prop-2-en-1-one] | 108%
13 | O=C(CCl)N1CCCCC1c1nc(-c2ccccn2)cs1 (stereo not shown) [5-G18, 2-chloro-1-{2-[4-(pyridin-2-yl)-1,3-thiazol-2-yl]piperidin-1-yl}ethan-1-one] | 0.612%
14 | C=CC(=O)Nc1ccc(-n2ccccc2=O)cc1F [3-J16, N-[2-fluoro-4-(2-oxo-1,2-dihydropyridin-1-yl)phenyl]prop-2-enamide] | 101%
15 | C=CC(=O)N1CCC(C(=O)N2CCCC(CC(N)=O)CC2)CC1 (stereo not shown) [2-F12, 2-{1-[1-(prop-2-enoyl)piperidine-4-carbonyl]azepan-4-yl}acetamide] | 65.1%
16 | C=CC(=O)N1CCC(C(=O)Oc2ccc(NC(C)=O)cc2)CC1 [3-M16, 4-acetamidophenyl 1-(prop-2-enoyl)piperidine-4-carboxylate] | 93.3%
17 | N#CC(=Cc1cccc(F)c1)C(=O)NCc1ccccc1 [9-K09, N-benzyl-2-cyano-3-(3-fluorophenyl)prop-2-enamide] | 109%
18 | C=CC(=O)N1CCOC(c2ccccc2)C1 (stereo not shown) [2-I07, 1-(2-phenylmorpholin-4-yl)prop-2-en-1-one] | 118%
19 | CC(Cl)C(=O)NC(=O)NC12CC3CC(CC(C3)C1)C2 (stereo not shown) [6-D10, 1-(adamantan-1-yl)-3-(2-chloropropanoyl)urea] | 101%
20 | O=C(CCl)NCCc1ccc2c(c1)OCCO2 [4-N11, 2-chloro-N-[2-(2,3-dihydro-1,4-benzodioxin-6-yl)ethyl]acetamide] | 18.9%
21 | N#CC(=Cc1ccc(-c2ccc(F)cc2)o1)C(=O)NC1CCCCC1 [9-H17, 2-cyano-N-cyclohexyl-3-[5-(4-fluorophenyl)furan-2-yl]prop-2-enamide] | 77.1%
22 | CC(Cl)C(=O)N1CCCC(NS(=O)(=O)c2cccc(F)c2)C1 (stereo not shown) [7-C13, N-[1-(2-chloropropanoyl)piperidin-3-yl]-3-fluorobenzene-1-sulfonamide] | 79.3%
23 | C=CC(=O)N(CC)CC(=O)N1CCCC1c1ccc(F)cc1C (stereo not shown) [2-F08, N-ethyl-N-{2-[2-(4-fluoro-2-methylphenyl)pyrrolidin-1-yl]-2-oxoethyl}prop-2-enamide] | 74.7%
24 | C=CC(=O)Nc1ncccn1 [1-M12, N-(pyrimidin-2-yl)prop-2-enamide] | 71.5%
25 | C=CC(=O)N(C)CC(=O)N1CCOC(c2ccccc2Cl)C1 (stereo not shown) [2-J04, N-{2-[2-(2-chlorophenyl)morpholin-4-yl]-2-oxoethyl}-N-methylprop-2-enamide] | 72.1%
26 | CC(Cl)C(=O)N1CC(c2cc(CO)on2)C1 (stereo not shown) [7-M10, 2-chloro-1-{3-[5-(hydroxymethyl)-1,2-oxazol-3-yl]azetidin-1-yl}propan-1-one] | 84.9%

Row | SMILES | viability at 48 h, 25 µM
27 | COc1ccc(N(C(=O)CCl)C2C=CS(=O)(=O)C2)cc1 (stereo not shown) [5-H14, 2-chloro-N-(1,1-dioxo-2,3-dihydro-1lambda6-thiophen-3-yl)-N-(4-methoxyphenyl)acetamide] | 1.1%
28 | CC(Cl)C(=O)Nc1cccc(CSc2ccccn2)c1 (stereo not shown) [5-B18, 2-chloro-N-{3-[(pyridin-2-ylsulfanyl)methyl]phenyl}propanamide] | 119%
29 | N#CC(=Cc1ccco1)C(=O)Nc1ccc2nc(S)oc2c1 [9-E16, 2-cyano-3-(furan-2-yl)-N-(2-sulfanyl-1,3-benzoxazol-6-yl)prop-2-enamide] | 110%
30 | O=C(CCl)NC1CN(C(=O)C2CC2)C1 [6-P22, 2-chloro-N-(1-cyclopropanecarbonylazetidin-3-yl)acetamide] | 112%
31 | CC(C)Cc1nnc(NC(=O)CCl)s1 [4-A17, 2-chloro-N-[5-(2-methylpropyl)-1,3,4-thiadiazol-2-yl]acetamide] | 0.521%
32 | CC1CC(C)CN(S(=O)(=O)c2ccc(NC(=O)CCl)cc2)C1 (stereo not shown) [4-K16, 2-chloro-N-{4-[(3,5-dimethylpiperidin-1-yl)sulfonyl]phenyl}acetamide] | 0.265%
33 | COc1ccc(C=C(C#N)C(=O)Nc2cccnc2)cc1OC [8-M05, 2-cyano-3-(3,4-dimethoxyphenyl)-N-(pyridin-3-yl)prop-2-enamide] | 118%
34 | CN1C(=O)c2ccccc2C1CNC(=O)CCl (stereo not shown) [7-B10, 2-chloro-N-[(2-methyl-3-oxo-2,3-dihydro-1H-isoindol-1-yl)methyl]acetamide] | 4.11%
35 | C=CC(=O)Nc1c(C)cnn1CC1CC1 [1-M19, N-[1-(cyclopropylmethyl)-4-methyl-1H-pyrazol-5-yl]prop-2-enamide] | 94.9%
36 | CC(Cl)C(=O)N1CCNC(=O)C1c1cccs1 (stereo not shown) [6-J17, 4-(2-chloropropanoyl)-3-(thiophen-2-yl)piperazin-2-one] | 106%
37 | CCOc1ccc(S(=O)(=O)N2CCN(C(=O)CCl)CC2)cc1 [4-P15, 2-chloro-1-[4-(4-ethoxybenzenesulfonyl)piperazin-1-yl]ethan-1-one] | 0.587%
38 | COc1cc(NC(=O)CCl)c(C)cc1[N+](=O)[O-] [4-M09, 2-chloro-N-(5-methoxy-2-methyl-4-nitrophenyl)acetamide] | 1.27%
39 | CC(C)C(C)N(Cc1ccns1)C(=O)CCl (stereo not shown) [5-M12, 2-chloro-N-(3-methylbutan-2-yl)-N-[(1,2-thiazol-5-yl)methyl]acetamide] | 9.67%
40 | CC(C1CC1)N(CC(F)(F)F)C(=O)CCl (stereo not shown) [5-P08, 2-chloro-N-(1-cyclopropylethyl)-N-(2,2,2-trifluoroethyl)acetamide] | 90.7%
41 | C=CC(=O)N1CCC(C(=O)N2Cc3ccc([N+](=O)[O-])cc3C2)CC1 [2-F04, 1-[4-(5-nitro-2,3-dihydro-1H-isoindole-2-carbonyl)piperidin-1-yl]prop-2-en-1-one] | 82.7%
42 | COC1CCC(N(Cc2cc(C)oc2C)C(=O)CCl)CC1 (stereo not shown) [5-O20, 2-chloro-N-[(2,5-dimethylfuran-3-yl)methyl]-N-(4-methoxycyclohexyl)acetamide] | 2.21%
43 | C=CC(=O)NC1C(=O)OCC1(C)C (stereo not shown) [1-E08, N-(4,4-dimethyl-2-oxooxolan-3-yl)prop-2-enamide] | 83.7%
44 | C=CC(=O)NCc1cscn1 [1-I07, N-[(1,3-thiazol-4-yl)methyl]prop-2-enamide] | 69.5%
45 | CS(=O)(=O)N1CCc2cc(C(=O)CCl)ccc21 [10-B19, 2-chloro-1-(1-methanesulfonyl-2,3-dihydro-1H-indol-5-yl)ethan-1-one] | 7.21%
46 | CCCn1c(C)cc(C=C(C#N)C(=O)Nc2cccc(C#N)c2)c1C [8-N19, 2-cyano-N-(3-cyanophenyl)-3-(2,5-dimethyl-1-propyl-1H-pyrrol-3-yl)prop-2-enamide] | 107%
47 | Cc1cc(NC(=O)CCl)c([N+](=O)[O-])cc1C [4-F21, 2-chloro-N-(4,5-dimethyl-2-nitrophenyl)acetamide] | 112%
48 | Cc1cccc(C)c1NC(=O)C(C#N)=Cc1ccc(OC(F)F)cc1 [8-A11, 2-cyano-3-[4-(difluoromethoxy)phenyl]-N-(2,6-dimethylphenyl)prop-2-enamide] | 56.3%
49 | C=CC(=O)NCc1ccc(C(=O)N2CCN(c3nc(C)n[nH]3)CC2)cc1 [2-F22, N-({4-[4-(3-methyl-1H-1,2,4-triazol-5-yl)piperazine-1-carbonyl]phenyl}methyl)prop-2-enamide] | 78.3%
50 | CC(Cl)C(=O)Nc1ccc(F)c(Cl)c1 (stereo not shown) [4-A04, 2-chloro-N-(3-chloro-4-fluorophenyl)propanamide] | 56.5%
51 | Cc1ccccc1NC(=O)C(C#N)=Cc1ccc(N2CCCCC2)cc1 [9-E21, 2-cyano-N-(2-methylphenyl)-3-[4-(piperidin-1-yl)phenyl]prop-2-enamide] | 91.8%
52 | CC(Cl)C(=O)N(C)C1CCN(c2ccccn2)CC1 (stereo not shown) [6-J20, 2-chloro-N-methyl-N-[1-(pyridin-2-yl)piperidin-4-yl]propanamide] | 106%

— article PMC11995724, “Antibiotic target discovery by integrated phenotypic and activity-based profiling of electrophilic fragments” (Cell chemical biology, 2025)
